Data from publication PMC12040184, “Zebrafish Polymerase Theta and human Polymerase Theta: Orthologues with homologous function” (PLOS One, 2025).

Legend:
hPol θ PD = molecular target: T1, hPol θ PD (Homo sapiens, UniProt O75417); experiment: primer extension, denaturing gel; assay type: biochemical
T1 construct: gene POLQ; pSUMO3 (POLQM1) vector, 6xHis-SUMO tag cut off; E. coli; ~90 kDa
T1 sequence (O75417 1791-2590): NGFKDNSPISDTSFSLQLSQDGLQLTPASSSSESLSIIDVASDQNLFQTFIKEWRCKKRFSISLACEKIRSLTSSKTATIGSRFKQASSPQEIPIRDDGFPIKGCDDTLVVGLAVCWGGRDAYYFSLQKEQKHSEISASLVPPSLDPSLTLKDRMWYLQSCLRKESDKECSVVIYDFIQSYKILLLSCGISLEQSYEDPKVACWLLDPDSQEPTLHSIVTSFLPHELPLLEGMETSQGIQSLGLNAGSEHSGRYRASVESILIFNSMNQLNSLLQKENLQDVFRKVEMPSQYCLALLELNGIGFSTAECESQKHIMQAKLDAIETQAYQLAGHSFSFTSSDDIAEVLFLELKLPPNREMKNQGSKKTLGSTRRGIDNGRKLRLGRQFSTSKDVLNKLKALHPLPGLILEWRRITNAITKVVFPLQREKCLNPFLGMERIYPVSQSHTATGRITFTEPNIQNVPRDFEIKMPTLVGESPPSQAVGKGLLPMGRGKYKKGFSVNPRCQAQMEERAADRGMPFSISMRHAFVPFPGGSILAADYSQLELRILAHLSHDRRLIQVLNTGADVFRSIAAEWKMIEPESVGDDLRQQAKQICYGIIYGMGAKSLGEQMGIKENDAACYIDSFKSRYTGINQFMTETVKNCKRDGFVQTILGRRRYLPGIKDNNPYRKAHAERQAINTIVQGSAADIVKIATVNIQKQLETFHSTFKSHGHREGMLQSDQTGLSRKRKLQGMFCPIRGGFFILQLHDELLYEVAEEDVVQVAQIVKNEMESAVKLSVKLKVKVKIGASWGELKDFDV

[1] = molecular target: T2, zPol theta PD (DNA polymerase theta polymerase domain) (zebrafish, UniProt F1Q4P4 1832-2576); experiment: EMSA; 10 nM DNA, 0-1000 nM protein; binding buffer (composition not given in the material), 1 h at room temperature, 6% native PAGE; settings: protein: recombinant; tags: 6xHis-SUMO, cleaved off (untagged); label: 5'-6-FAM on strand 1 (25-mer primer); primer-template, 22 bp; 5' overhang 18 nt on template, 3 nt unpaired 5' TTT on primer
T2 sequence: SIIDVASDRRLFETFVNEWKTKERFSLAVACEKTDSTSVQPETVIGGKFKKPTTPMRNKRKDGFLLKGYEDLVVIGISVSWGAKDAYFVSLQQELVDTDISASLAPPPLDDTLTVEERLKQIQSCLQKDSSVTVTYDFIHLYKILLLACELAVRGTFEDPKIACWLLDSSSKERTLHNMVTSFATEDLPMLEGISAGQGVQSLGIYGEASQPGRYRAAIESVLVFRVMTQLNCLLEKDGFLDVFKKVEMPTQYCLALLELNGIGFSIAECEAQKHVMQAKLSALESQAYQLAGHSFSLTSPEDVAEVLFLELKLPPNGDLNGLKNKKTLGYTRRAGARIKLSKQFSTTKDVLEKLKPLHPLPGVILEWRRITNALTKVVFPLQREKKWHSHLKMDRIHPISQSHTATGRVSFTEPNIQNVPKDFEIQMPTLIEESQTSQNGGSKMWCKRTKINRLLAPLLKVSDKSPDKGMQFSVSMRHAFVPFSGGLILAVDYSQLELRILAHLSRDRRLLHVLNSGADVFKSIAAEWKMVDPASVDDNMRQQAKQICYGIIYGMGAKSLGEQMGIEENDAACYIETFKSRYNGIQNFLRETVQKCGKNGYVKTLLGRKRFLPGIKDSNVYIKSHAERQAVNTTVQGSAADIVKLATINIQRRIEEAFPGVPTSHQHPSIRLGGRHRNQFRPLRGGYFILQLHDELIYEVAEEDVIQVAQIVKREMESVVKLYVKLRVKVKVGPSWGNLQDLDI

Molecule: Nc1ccn([C@H]2C[C@H](O)[C@@H](COP(=O)(O)OP(=O)(O)OP(=O)(O)O)O2)c(=O)n1 [dCTP]
- primer extension, denaturing gel (hPol θ PD; 25/40 dsDNA, templating G, MgCl2 or MnCl2, pH 8.0, 37 °C, steady state): Both enzymes were able to incorporate single nucleotides, correct and incorrect as well

Molecule: Nc1ncnc2c1ncn2[C@H]1C[C@H](O)[C@@H](COP(=O)(O)OP(=O)(O)OP(=O)(O)O)O1 [dATP]
- primer extension, denaturing gel (hPol θ PD; CPD (T-T dimer) 24/33 DNA, 10 mM MgCl2 or MnCl2, pH 8.0, 37 °C, single turnover): Both enzymes were able to readily insert opposite a T-T dimer

B1: 25/40 dsDNA undamaged (dsDNA)
DNA 1: TTTGCCTTGACCATGTAACAGAGAG
DNA 2: TCTCTTCTCTCACTCACGCTCTCTGTTACATGGTCAAGGC
- Kd [1]: 19.8 ± 3.1 nM
